Experimental data reported in paper PMC5412686 (Biopharmaceutics & Drug Disposition, 2017).
Converted amounts (≈) assume the structure as drawn. Read-outs that look alike come from different tables or passages of the source.

What was measured:
[1] = cited from earlier work; for F: po
[2] = Humans, blood/plasma ratio; ref Supplemental Table S1; cited from earlier work
[3] = Humans, cited from earlier work; for Urinary excretion (f e): excreted unchanged in urine, ref Supplemental Table S1; for CL: i.v.; for CL / F / Vss: ref Supplemental Table S2; for F: oral bioavailability
[4] = human, Caco-2, pH 7.4, with cyclosporine A 10 μM
[5] = system: Caco‐2 cells (TC7 clone); settings: Equation 11 from measured P‐Caco2
[6] = ref Supplemental Table S1, cited from earlier work; for HBD: number of hydrogen bond donors; for log D: octanol/water at pH 7.4; for PSA: polar surface area
[7] = Rats, blood/plasma ratio; ref Supplemental Table S1; cited from earlier work
[8] = cited from earlier work
[9] = Intrinsic metabolic clearance determined in human liver microsomes; type: in vitro ADME; settings: pH 7.4
[10] = Solubility in fasted state simulated intestinal fluid; type: physicochemical; settings: FaSSIF, 37 °C, pH 6.5, fassif, thermodynamic from solid
[11] = Rats, fraction unbound; ref Supplemental Table S1; cited from earlier work
[12] = Rats, i.v., ref Supplemental Table S2
[13] = no medium marked (buffer pH 7.4), ref Supplemental Table S1
[14] = FaHIF, fasted human intestinal fluid

Structure (SMILES)	CL [1, 12] [mL/min/kg]	F ([1]; rat, in vivo)	Urinary excretion (f e) [3]	CL [3] [L/h]	F [3]	Vss [3] [L/kg]	Papp at 2 h, 1 μM [4] [×10⁻⁶ cm/s]	Calculated P eff from P‐Caco2 [5]	HBD [6]	log D [6]	PSA [6]	Solubility (Biorelevant media or Buffer, pH 7.4) [8, 13] [mg/ml]	microsomal CLint at 1 μM [9] [µL/min/mg]	other results
C=CCc1ccccc1OCC(O)CNC(C)C (stereo not drawn) [Alprenolol]	79	0.04	0.5 % of dose	65.90	0.06	2.99	31.5	3.9 10^−4 cm/s	2	1.34	46.2	0.55	128	R b [2]: 0.76; R b [7]: 1.71
COc1ccc([C@@H]2Sc3ccccc3N(CCN(C)C)C(=O)[C@@H]2OC(C)=O)cc1 [Diltiazem]	42	0.06		48.3		5.2			0		56.5	0.47	35	Base pKa [6]: 8.1
O=c1[nH]c2ccccc2n1CCCN1CCC(n2c(=O)[nH]c3cc(Cl)ccc32)CC1 [Domperidone]	39.2		< 1 % of dose	42.06			38.6	4.3 10^−4 cm/s	2	3.33	66.8		166	solubility at 24 h [10]: 135 µg/mL (≈ 317 µM)
CC[C@H]1OC(=O)[C@H](C)[C@@H](O[C@H]2C[C@@](C)(OC)[C@@H](O)[C@H](C)O2)[C@H](C)[C@@H](O[C@@H]2O[C@H](C)C[C@H](N(C)C)[C@H]2O)[C@](C)(O)C[C@@H](C)C(=O)[C@H](C)[C@@H](O)[C@]1(C)O [Erythromycin]	105	0.14		18.73	0.21	0.60			5	1.16	203.3	2		
CCC(C)n1ncn(-c2ccc(N3CCN(c4ccc(OCC5COC(Cn6cncn6)(c6ccc(Cl)cc6Cl)O5)cc4)CC3)cc2)c1=O (stereo not drawn) [Itraconazole]	9.1	0.35	< 1 % of dose	22.86	0.76				0	3.27	84.7			f up [11]: 0.009; Solubility (Biorelevant media or Buffer, pH 7.4) [8, 14]: 0.006 (FaHIF) mg/ml
CCN(CC)CC(=O)Nc1c(C)cccc1C [Lidocaine]														R b [2]: 0.87; R b [7]: 1.27
COCCc1ccc(OCC(O)CNC(C)C)cc1 (stereo not drawn) [Metoprolol]	65.2			65.34		5.18			2	0.16	55.0		19	Solubility (Biorelevant media or Buffer, pH 7.4) [8, 14]: 299.8 (FaHIF) mg/ml
Cc1ncc2n1-c1ccc(Cl)cc1C(c1ccccc1F)=NC2 [Midazolam]		0.25	< 1 % of dose	19.38	0.7	0.74			0	1.53	20.1	0.024	392	CL ([1]; rat, in vivo, iv): 46 mL/min/kg; R b [2]: 0.75; Base pKa [6]: 5.6; R b [7]: 0.81
CN1CCN2c3ncccc3Cc3ccccc3C2C1 (stereo not drawn) [Mirtazapine]	29.4	0.07		38.3	0.4	3.52	33.2	4.0 10^−4 cm/s	0	0.28	12.3	0.002	11	
Oc1ccc2c3c1O[C@H]1[C@@H](O)CC[C@@]4(O)[C@@H](C2)N(CC2CCC2)CC[C@]314 [Nalbuphine]	63			90		4.63	29.8	3.8 10^−4 cm/s	3	0.81	78.3	35.5	< 10	Base pKa [6]: 10.0
COC(=O)C1=C(C)NC(C)=C(C(=O)OC)C1c1ccccc1[N+](=O)[O-] [Nifedipine]			0 % of dose											
COCCOC(=O)C1=C(C)NC(C)=C(C(=O)OC(C)C)C1c1cccc([N+](=O)[O-])c1 (stereo not drawn) [Nimodipine]	1.5	0.22		58.8	0.33	0.94	22.2	3.3 10^−4 cm/s	1	2.86	121.6	0.024	> 1000	
COC(=O)C1=C(C)NC(C)=C(C(=O)OCC(C)C)C1c1ccccc1[N+](=O)[O-] (stereo not drawn) [Nisoldipine]	45.8	0.03	< 1 % of dose	50.82	0.04	4.1	56.7	5.2 10^−4 cm/s	1	4.96	110.5	0.006	> 1000	f up [11]: 0.009
COc1ccc2[nH]c([S+]([O-])Cc3ncc(C)c(OC)c3C)nc2c1 (stereo not drawn) [Omeprazole]	39.2	0.09	0 % of dose	39.48	0.32				1	2.23	71.0	0.035	< 10	R b [2]: 0.59; R b [7]: 0.66
CCCc1nn(C)c2c(=O)[nH]c(-c3cc(S(=O)(=O)N4CCN(C)CC4)ccc3OCC)nc12 [Sildenafil]	38.5	0.06		40.08	0.41		28.6	3.7 10^−4 cm/s	1	2.45	105.2	3.5	98	Base pKa [6]: 6.0
C=CC[C@@H]1/C=C(\C)C[C@H](C)C[C@H](OC)[C@H]2O[C@@](O)(C(=O)C(=O)N3CCCC[C@H]3C(=O)O[C@H](/C(C)=C/[C@@H]3CC[C@@H](O)[C@H](OC)C3)[C@H](C)[C@@H](O)CC1=O)[C@H](C)C[C@@H]2OC [Tacrolimus]	16.5	0.11	< 1 % of dose	78.75	0.21	1.74			3	3.96	185.9	0.008		R b [2]: 35; Base pKa [6]: 9.3; R b [7]: 1.4
Cc1nnc2n1-c1ccc(Cl)cc1C(c1ccccc1Cl)=NC2 [Triazolam]		0.16	2 % of dose	12.72	0.8				0		33.3	0.005		CL ([1]; rat, in vivo, iv): 51.4 mL/min/kg; f up [11]: 0.28
COc1ccc(C(CN(C)C)C2(O)CCCCC2)cc1 (stereo not drawn) [Venlafaxine]	64.5	0.13	4.6 % of dose	60.35	0.37		33.2	4.0 10^−4 cm/s	1	0.76	32.8		< 10	
COc1ccc(CCN(C)CCCC(C#N)(c2ccc(OC)c(OC)c2)C(C)C)cc1OC (stereo not drawn) [Verapamil]									0		56.3			
CN(C)CCc1c[nH]c2ccc(C[C@H]3COC(=O)N3)cc12 [Zolmitriptan]	29.4	0.41	8 % of dose	43.06	0.7				2		56.8	20		
Cc1ccc(-c2nc3ccc(C)cn3c2CC(=O)N(C)C)cc1 [Zolpidem]	15	0.27	< 1 % of dose	18.85	0.78	0.68			0		30.0	23	< 10	R b [2]: 0.66; Acid pKa [6]: 6.3; R b [7]: 0.86
